{
  "source": "paper PMC10349806",
  "about": "(Nature Communications, 2023)",
  "target": "T1, PfCRT variant D410A (Plasmodium falciparum, UniProt Q9N623, A220S/D410A/I356T/K76T/M74I/N326S/N75E/Q271E/R371I)",
  "T1 sequence (Q9N623 1-424 M74I/N75E/K76T/A220S/Q271E/N326S/I356T/R371I/D410A)": "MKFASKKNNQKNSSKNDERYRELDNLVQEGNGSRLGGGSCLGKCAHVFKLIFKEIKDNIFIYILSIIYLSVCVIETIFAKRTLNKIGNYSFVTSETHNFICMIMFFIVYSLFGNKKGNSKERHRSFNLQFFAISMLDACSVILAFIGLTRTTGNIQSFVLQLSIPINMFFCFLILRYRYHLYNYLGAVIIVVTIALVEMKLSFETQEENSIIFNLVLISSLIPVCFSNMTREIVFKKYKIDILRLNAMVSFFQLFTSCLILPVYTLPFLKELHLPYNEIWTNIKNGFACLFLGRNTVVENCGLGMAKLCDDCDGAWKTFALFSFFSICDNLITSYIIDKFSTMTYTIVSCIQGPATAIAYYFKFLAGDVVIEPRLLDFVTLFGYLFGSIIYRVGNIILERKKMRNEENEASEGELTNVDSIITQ",
  "experiment": "CQ uptake assay, oocytes expressing D410A",
  "format": "cell-based",
  "experimental": "Site-directed mutagenesis of PfCRT^Dd2 was performed as described using the megaprimer method with overlap extension[21],[54]. The primer pairs used are listed in Supplementary Table 6. Please note that a codon-optimized and oocyte-adapted version of PfCRT^Dd2 was used[22] (Supplementary Fig. 16). The resulting DNA fragment was cloned into the SP64T expression vector and verified by sequencing.\nOocytes were obtained as described previously. Briefly, adult (>2 years old) female X. laevis frogs (NASCO) were anesthetized in a cooled solution of ethyl 3-amino benzoate methanesulfonate (0.1%, w/v), followed by a surgical removal of parts of the ovary. The ovary lobes were carefully dissected and small pieces of oocytes were incubated in Ca^2+-free ND96 buffer (96 mM NaCl, 2 mM KCl, 1 mM MgCl2 buffered with 5 mM HEPES/NaOH, pH 7.5) supplemented with collagenase D (0.1%, w/v; Roche), BSA (0.5%, w/v), and 9 mm Na2HPO4 at 18 °C for 14-16 h while gentle shaking. After incubation, the oocytes were carefully washed several times with ND96 buffer (96 mM NaCl, 2 mM KCl, 1.8 mM CaCl2, 1 mM MgCl2 buffered with 5 mM HEPES/NaOH, pH 7.5) supplemented with 100 mg l^−1 gentamycin). Defolliculated and healthy-looking stage V-VI oocytes were manually selected for RNA microinjection. The RNA was generated as following: The codon-optimized sequences of PfCRT variants were cloned into the pSP64T expression vector. After vector linearization using the restriction endonucleases BamHI or SalI (New England Biolabs), transcription was performed using the in vitro SP6 mMessage mMachine Kit (Ambion)[34]. The obtained RNA was kept at −80 °C and diluted with nuclease-free water to a concentration of 0.6 μg μl^−1. Precision-bore glass capillary tubes (3.5-inch glass capillaries; Drummond Scientific Co.) were pulled on a vertical puller (P-87 Flaming/Brown micropipette puller, Sutter Instrument Co.), graduated, and placed on a microinjector (Nanoject II Auto-Nanoliter Injector, Drummond Scientific Co.). 50 nl of nuclease-free water alone (control oocytes) or 50 nl of 0.6 μg μl^−1 RNA were injected under stereomicroscopic control. Injected oocytes were incubated for 46–72 h at 18 °C with twice-daily buffer changes before usage in experiments.\nDrug uptake assays were performed as described previously[21],[22],[24],[34]. […] The direction of radio-labeled drug transport is here from the mostly acidic extracellular solution (pH 4.5 or 6.0, as indicated) into the oocyte cytosol (pH ∼ 7.2), which corresponds to the efflux of drug from the acidic digestive vacuole (pH 5.2) into the parasite cytoplasm (pH 7.2). The topology of PfCRT in the oolemma is such that both the N- and C-terminus face the extracellular milieu[3],[22]. In the parasite, the N- and C-terminus face the lumen of the digestive vacuole. CQ uptake kinetics were performed by incubating oocytes in ND96 buffer adjusted to a pH of 4.5, 5.0, 5.5, or 6.0 and supplemented with 50 nM [^3H]CQ and one of 7 different CQ concentrations (10 µM, 50 µM, 100 µM, 200 µM, 300 µM, 400 µM, 500 µM CQ). The reaction was stopped at the 60 min time point, which is in the linear uptake range[22],[34] (Supplementary Fig. 17). For determination of the amount of drug uptake for each oocyte, the reaction medium was removed and the oocytes were washed three times with 2 ml of ice-cold ND96 buffer. Each oocyte was individually transferred to a scintillation vial containing 5% sodium dodecyl sulfate (200 μl) for lysis. The radioactivity of each sample was measured using a liquid scintillation analyzer Tri-Carb 4910 TR (PerkinElmer). Oocytes that were injected with water instead of RNA were analyzed in parallel, representing the uptake of a drug by diffusion and/or endogenous permeation pathways. The resulting value represents the “background“ level of drug accumulation in oocytes (in-depth discussion in[22]). […]",
  "key": {"[1]": {"conditions": "D410A, 50 µM CQ, 1 h, mean ± SEM"}},
  "note": "“And” between values parts separate entries of the source, which are not always exact repeats. Equal values may be shown once.",
  "data": [
    {"smiles": "CCN(CC)CCCC(C)Nc1ccnc2cc(Cl)ccc12", "note": "(stereo not drawn) [CQ, chloroquine]", "values": [
      {"measurement": "Activity at pH 4.5", "setting": "[1]", "value": "2.38 ± 0.18", "unit": "pmol h-1 oocyte-1"},
      {"measurement": "Activity at pH 6.0", "setting": "[1]", "value": "5.09 ± 0.24", "unit": "pmol h-1 oocyte-1"},
      {"measurement": "R-value", "setting": "D410A, CQ transport at pH 4.5 / pH 6.0", "value": "0.47 ± 0.06"},
      {"measurement": "D410A transport activity pH 4.5", "setting": "pH 4.5, single replicates, Fig 1d left", "value": "2.74 pmol oocyte-1 h-1 and 1.99 pmol oocyte-1 h-1 and 2.40 pmol oocyte-1 h-1"},
      {"measurement": "D410A R-value", "setting": "pH 4.5 vs pH 6.0, Fig 1d left", "value": "0.60 and 0.35 and 0.47"},
      {"measurement": "D410A transport activity pH 6.0", "setting": "pH 6.0, single replicates, Fig 1d left", "value": "4.58 pmol oocyte-1 h-1 and 5.61 pmol oocyte-1 h-1 and 5.09 pmol oocyte-1 h-1"}
    ]}
  ]
}
